From US11753445B2, “Therapeutic peptides” (COHBAR, INC., priority 2016, dated 2023)
Peptide text beside a SMILES is read from it.

system: 3T3-L1 Adipocytes; assay: Free fatty acid levels in cultured mouse 3T3-L1 adipocytes, isoproterenol stimulated (Example 2); format: cell-based; conditions: test peptides 25 μM; isoproterenol 1 nM
How it was run: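 3T3-L1 cells differentiated 12–17 days into adipocytes, then exposed to test peptides at 25 μM final for 18–20 h, then 1 h, then 3 h with isoproterenol (1 nM) at 37 °C. Free fatty acids in the medium measured colorimetrically at 540 nm, corrected for untreated background and expressed relative to isoproterenol-only cells.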

In order of falling “Free Fatty Acid Levels in 3T3-L1 Adipocytes Expressed as a Percent of Isoproterenol Control: Percent of Control Value”:
1. CC[C@H](C)[C@H](NC(=O)[C@H](Cc1ccc(O)cc1)NC(=O)CNC(=O)[C@H](CCSC)NC(=O)[C@H](CCC(=O)O)NC(=O)[C@H](CCC(N)=O)NC(=O)[C@H](Cc1c[nH]c2ccccc12)NC(=O)[C@H](CCCNC(=N)N)NC(=O)[C@H](CCSC)NC(C)=O)C(=O)N[C@@H](Cc1ccccc1)C(=O)N[C@@H](Cc1ccc(O)cc1)C(=O)N[C@H](C)C(=O)N[C@@H](CCCNC(=N)N)C(=O)N[C@@H](CCCCN)C(=O)N[C@@H](CC(C)C)C(=O)N[C@@H](CCCNC(=N)N)C(N)=O [compound 163] (HELM PEPTIDE1{[ac].M.R.W.Q.E.M.G.Y.I.F.Y.[dA].R.K.L.R.[am]}$$$$V2.0)  91.8%
2. CC[C@H](C)[C@H](NC(=O)[C@@H](C)NC(=O)CNC(=O)[C@H](CCSC)NC(=O)[C@H](CCC(=O)O)NC(=O)[C@H](CCC(N)=O)NC(=O)[C@H](Cc1c[nH]c2ccccc12)NC(=O)[C@H](CCCNC(=N)N)NC(=O)[C@H](CCSC)NC(C)=O)C(=O)N[C@@H](Cc1ccccc1)C(=O)N[C@@H](Cc1ccc(O)cc1)C(=O)N1CCC[C@H]1C(=O)N[C@@H](CCCNC(=N)N)C(=O)N[C@@H](CCCCN)C(=O)N[C@@H](CC(C)C)C(=O)N[C@@H](CCCNC(=N)N)C(N)=O [compound 159] (HELM PEPTIDE1{[ac].M.R.W.Q.E.M.G.[dA].I.F.Y.P.R.K.L.R.[am]}$$$$V2.0)  87.4%
3. CSCC[C@H](NC(C)=O)C(=O)N[C@@H](CCCNC(=N)N)C(=O)N[C@@H](Cc1c[nH]c2ccccc12)C(=O)N[C@@H](CCC(N)=O)C(=O)N[C@@H](CCC(=O)O)C(=O)N[C@@H](CCSC)C(=O)NCC(=O)N[C@@H](Cc1ccc(O)cc1)C(=O)N[C@H](C)C(=O)N[C@@H](Cc1ccccc1)C(=O)N[C@@H](Cc1ccc(O)cc1)C(=O)N1CCC[C@H]1C(=O)N[C@@H](CCCNC(=N)N)C(=O)N[C@@H](CCCCN)C(=O)N[C@@H](CC(C)C)C(=O)N[C@@H](CCCNC(=N)N)C(N)=O [compound 160] (HELM PEPTIDE1{[ac].M.R.W.Q.E.M.G.Y.[dA].F.Y.P.R.K.L.R.[am]}$$$$V2.0)  87.1%
4. CC[C@H](C)[C@H](NC(=O)[C@H](Cc1ccc(O)cc1)NC(=O)CNC(=O)[C@@H](C)NC(=O)[C@H](CCC(=O)O)NC(=O)[C@H](CCC(N)=O)NC(=O)[C@H](Cc1c[nH]c2ccccc12)NC(=O)[C@H](CCCNC(=N)N)NC(=O)[C@H](CCSC)NC(C)=O)C(=O)N[C@@H](Cc1ccccc1)C(=O)N[C@@H](Cc1ccc(O)cc1)C(=O)N1CCC[C@H]1C(=O)N[C@@H](CCCNC(=N)N)C(=O)N[C@@H](CCCCN)C(=O)N[C@@H](CC(C)C)C(=O)N[C@@H](CCCNC(=N)N)C(N)=O [compound 157] (HELM PEPTIDE1{[ac].M.R.W.Q.E.[dA].G.Y.I.F.Y.P.R.K.L.R.[am]}$$$$V2.0)  85.0%
5. CC[C@H](C)[C@H](NC(=O)[C@H](Cc1ccc(O)cc1)NC(=O)CNC(=O)[C@H](CCSC)NC(=O)[C@H](CCC(=O)O)NC(=O)[C@H](CCC(N)=O)NC(=O)[C@H](Cc1c[nH]c2ccccc12)NC(=O)[C@H](CCCNC(=N)N)NC(=O)[C@H](CCSC)NC(C)=O)C(=O)N[C@H](C)C(=O)N[C@@H](Cc1ccc(O)cc1)C(=O)N1CCC[C@H]1C(=O)N[C@@H](CCCNC(=N)N)C(=O)N[C@@H](CCCCN)C(=O)N[C@@H](CC(C)C)C(=O)N[C@@H](CCCNC(=N)N)C(N)=O [compound 161] (HELM PEPTIDE1{[ac].M.R.W.Q.E.M.G.Y.I.[dA].Y.P.R.K.L.R.[am]}$$$$V2.0)  83.7%
6. CC[C@H](C)[C@H](NC(=O)[C@H](Cc1ccc(O)cc1)NC(=O)CNC(=O)[C@H](CCSC)NC(=O)[C@H](CCC(=O)O)NC(=O)[C@H](CCC(N)=O)NC(=O)[C@H](Cc1c[nH]c2ccccc12)NC(=O)[C@H](CCCNC(=N)N)NC(=O)[C@H](CCSC)NC(C)=O)C(=O)N[C@@H](Cc1ccccc1)C(=O)N[C@H](C)C(=O)N1CCC[C@H]1C(=O)N[C@@H](CCCNC(=N)N)C(=O)N[C@@H](CCCCN)C(=O)N[C@@H](CC(C)C)C(=O)N[C@@H](CCCNC(=N)N)C(N)=O [compound 162] (HELM PEPTIDE1{[ac].M.R.W.Q.E.M.G.Y.I.F.[dA].P.R.K.L.R.[am]}$$$$V2.0)  82.4%
7. CC[C@H](C)[C@H](NC(=O)[C@H](Cc1ccc(O)cc1)NC(=O)CNC(=O)[C@H](CCSC)NC(=O)[C@H](CCC(=O)O)NC(=O)[C@H](CCC(N)=O)NC(=O)[C@H](Cc1c[nH]c2ccccc12)NC(=O)[C@H](CCCNC(=N)N)NC(=O)[C@H](CCSC)NC(C)=O)C(=O)N[C@@H](Cc1ccccc1)C(=O)N[C@@H](Cc1ccc(O)cc1)C(=O)N1CCC[C@H]1C(=O)N[C@@H](CCCNC(=N)N)C(=O)N[C@H](C)C(=O)N[C@@H](CC(C)C)C(=O)N[C@@H](CCCNC(=N)N)C(N)=O [compound 165] (HELM PEPTIDE1{[ac].M.R.W.Q.E.M.G.Y.I.F.Y.P.R.[dA].L.R.[am]}$$$$V2.0)  82.0%
8. CC[C@H](C)[C@H](NC(=O)[C@H](Cc1ccc(O)cc1)NC(=O)CNC(=O)[C@H](CCSC)NC(=O)[C@H](CCC(=O)O)NC(=O)[C@H](CCC(N)=O)NC(=O)[C@H](Cc1c[nH]c2ccccc12)NC(=O)[C@H](CCCNC(=N)N)NC(=O)[C@H](CCSC)NC(C)=O)C(=O)N[C@@H](Cc1ccccc1)C(=O)N[C@@H](Cc1ccc(O)cc1)C(=O)N1CCC[C@H]1C(=O)N[C@@H](CCCNC(=N)N)C(=O)N[C@@H](CCCCN)C(=O)N[C@H](C)C(=O)N[C@@H](CCCNC(=N)N)C(N)=O [compound 166] (HELM PEPTIDE1{[ac].M.R.W.Q.E.M.G.Y.I.F.Y.P.R.K.[dA].R.[am]}$$$$V2.0)  78.0%
9. CC[C@H](C)[C@H](NC(=O)[C@H](Cc1ccc(O)cc1)NC(=O)CNC(=O)[C@H](CCSC)NC(=O)[C@H](CCC(=O)O)NC(=O)[C@H](CCC(N)=O)NC(=O)[C@H](Cc1c[nH]c2ccccc12)NC(=O)[C@H](CCCNC(=N)N)NC(=O)[C@H](CCSC)NC(C)=O)C(=O)N[C@@H](Cc1ccccc1)C(=O)N[C@@H](Cc1ccc(O)cc1)C(=O)N1CCC[C@H]1C(=O)N[C@H](C)C(=O)N[C@@H](CCCCN)C(=O)N[C@@H](CC(C)C)C(=O)N[C@@H](CCCNC(=N)N)C(N)=O [compound 164] (HELM PEPTIDE1{[ac].M.R.W.Q.E.M.G.Y.I.F.Y.P.[dA].K.L.R.[am]}$$$$V2.0)  77.2%
10. CC[C@H](C)[C@H](NC(=O)[C@H](Cc1ccc(O)cc1)NC(=O)CNC(=O)[C@H](CCSC)NC(=O)[C@H](CCC(=O)O)NC(=O)[C@H](CCC(N)=O)NC(=O)[C@H](Cc1c[nH]c2ccccc12)NC(=O)[C@H](CCCNC(=N)N)NC(=O)[C@H](CCSC)NC(C)=O)C(=O)N[C@@H](Cc1ccccc1)C(=O)N[C@@H](Cc1ccc(O)cc1)C(=O)N1CCC[C@H]1C(=O)N[C@@H](CCCNC(=N)N)C(=O)N[C@@H](CCCCN)C(=O)N[C@@H](CC(C)C)C(=O)N[C@H](C)C(N)=O [compound 167] (HELM PEPTIDE1{[ac].M.R.W.Q.E.M.G.Y.I.F.Y.P.R.K.L.[dA].[am]}$$$$V2.0)  70.9%
